Data as given in patent publication US20070128217A1 (priority 2003, published 2007).

Tests used:
[1] = system: control sera (pooled serum of ten healthy LUMC hospital workers; commercial negative donor pooled serum from the Dutch bloodbank); type: binding, human; design: Binding of Control serum LUMC to linear peptides / Binding of Control serum Blood-bank to linear peptides / Binding of Control serum LUMC to looped peptides / Binding of Control Serum Blood-Bank to Looped peptides / Binding of Control serum LUMC to linear peptides of the protein M of SARS-CoV Urbani / Binding of Control serum Blood-bank to linear peptides of the protein M of SARS-CoV Urbani / Binding of Control serum LUMC to looped peptides of the protein M of SARS-CoV Urbani / Binding of Control Serum Blood-Bank to Looped peptides of the protein M of SARS-CoV Urbani: unit not given here
[2] = system: antibodies in sera from SARS patients (sera 1a, 1b, 2, 6, 37, 62, London, SARS-yellow, SARS-green); type: binding, human; design: Binding of serum 6 to linear peptides of protein X1 of SARS-CoV Urbani / Binding of serum 37 to linear peptides of protein X1 of SARS-CoV Urbani / Binding of serum 6 to looped/cyclic peptide (PEPSCAN-ELISA) / Binding of serum 37 to looped/cyclic peptide (PEPSCAN-ELISA) / Binding of serum 37 to looped/cyclic peptides of protein X1 of SARS-CoV Urbani / Binding of serum 6 to linear peptides of protein X2 / Binding of serum 37 to linear peptides of protein X2 / Binding of serum 37 to looped/cyclic peptides of protein X2 of SARS-CoV Urbani / Binding of serum 6 to linear peptides of protein M of SARS-CoV Urbani / Binding of serum 37 to linear peptides of protein M of SARS-CoV Urbani / Binding of serum 6 to looped/cyclic peptides of protein M of SARS-CoV Urbani / Binding of serum 37 to looped/cyclic peptides of protein M of SARS-CoV Urbani / Binding of serum 6 to linear peptides of protein X3 of SARS-CoV Urbani / Binding of serum 37 to linear peptides of protein X3 of SARS-CoV Urbani / Binding of serum 37 to looped/cyclic peptides of protein X3 of SARS-CoV Urbani / Binding of serum 6 to linear peptides of protein X4 of SARS-CoV Urbani / Binding of serum 37 to linear peptides of protein X4 of SARS-CoV Urbani / Binding of serum 37 to looped/cyclic peptides of protein X4 of SARS-CoV Urbani / Binding of serum 6 to linear peptides of protein X5 of SARS-CoV Urbani / Binding of serum 37 to linear peptides of protein X5 of SARS-CoV Urbani / Binding of serum 37 to looped/cyclic peptides of protein X5 of SARS-CoV Urbani / Binding of serum 6 to linear peptides of protein N of SARS-CoV Urbani / Binding of serum 37 to linear peptides of protein N of SARS-CoV Urbani / Binding of serum 6 to linear peptide (PEPSCAN-ELISA) / Binding of serum 1a to looped/cyclic peptides of protein N of SARS-CoV Urbani / Binding of serum 1b to looped/cyclic peptides of protein N of SARS-CoV Urbani / Binding of serum 2 to looped/cyclic peptides of protein N of SARS-CoV Urbani / Binding of serum 6 to looped/cyclic peptides of protein N of SARS-CoV Urbani / Binding of serum 37 to looped/cyclic peptides of protein N of SARS-CoV Urbani / Binding of serum 62 to looped/cyclic peptides of protein N of SARS-CoV Urbani / Binding of serum London to looped/cyclic peptides of protein N of SARS-CoV Urbani / Binding of serum SARS-green to looped/cyclic peptides of protein N of SARS-CoV Urbani: unit not given here
[3] = system: recombinant human anti-SARS-CoV antibody 03-018; type: binding; design: Binding of antibody 03-018 to linear peptides of the N protein of SARS-CoV Urbani / Binding of antibody 03-018 to looped/cyclic peptides of the N protein of SARS-CoV Urbani: unit not given here
[4] = system: rabbit serum obtained by immunizing a rabbit with the SARS-CoV strain Frankfurt 1; type: binding; design: Binding of a rabbit serum to linear peptides / Binding of a rabbit serum to looped peptides / Rabbit serum linear peptides / Rabbit serum looped peptides / Binding of a rabbit serum to linear peptides of protein N of SARS-CoV Urbani (Rabbit serum linear peptides) / Binding of a rabbit serum to looped/cyclic peptides of protein N of SARS-CoV Urbani (Rabbit serum looped peptides): unit not given here

Sequence: HIGTRNPNNNAATVL
- Binding of Control Serum Blood-Bank to Looped peptides [1]: 1.2
- Binding of Control serum Blood-bank to linear peptides [1]: 0.9
- Binding of Control serum LUMC to linear peptides [1]: 0.9
- Binding of Control serum LUMC to looped peptides [1]: 1.2
- Binding of serum 1a to linear peptides of protein N of SARS-CoV Urbani [2]: 0.3
- Binding of serum 1a to looped/cyclic peptides of protein N of SARS-CoV Urbani [2]: 0.6
- Binding of serum 1b to linear peptides of protein N of SARS-CoV Urbani [2]: 0.2
- Binding of serum 1b to looped/cyclic peptides of protein N of SARS-CoV Urbani [2]: 0.5
- Binding of serum 2 to linear peptides of protein N of SARS-CoV Urbani [2]: 0.4
- Binding of serum 2 to looped/cyclic peptides of protein N of SARS-CoV Urbani [2]: 0.9
- Binding of serum 6 to linear peptides of protein N of SARS-CoV Urbani [2]: 0.2
- Binding of serum 6 to looped/cyclic peptides of protein N of SARS-CoV Urbani [2]: 0.6
- Binding of serum 37 to linear peptides of protein N of SARS-CoV Urbani [2]: 0.9
- Binding of serum 37 to looped/cyclic peptides of protein N of SARS-CoV Urbani [2]: 1.2
- Binding of serum 62 to linear peptides of protein N of SARS-CoV Urbani [2]: 0.8
- Binding of serum 62 to looped/cyclic peptides of protein N of SARS-CoV Urbani [2]: 1.3
- Binding of serum London to linear peptides of protein N of SARS-CoV Urbani [2]: 0.5
- Binding of serum London to looped/cyclic peptides of protein N of SARS-CoV Urbani [2]: 0.7
- Binding of serum SARS-green to linear peptides of protein N of SARS-CoV Urbani [2]: 0.5
- Binding of serum SARS-green to looped/cyclic peptides of protein N of SARS-CoV Urbani [2]: 0.9
- Binding of serum SARS-yellow to linear peptides of protein N of SARS-CoV Urbani [2]: 0.7
- Binding of serum SARS-yellow to looped/cyclic peptides of protein N of SARS-CoV Urbani [2]: 0.8
- Binding of antibody 03-018 to linear peptides of the N protein of SARS-CoV Urbani [3]: 0.1
- Binding of antibody 03-018 to looped/cyclic peptides of the N protein of SARS-CoV Urbani [3]: 0.3
- Binding of a rabbit serum to linear peptides of protein N of SARS-CoV Urbani (Rabbit serum linear peptides) [4]: 0.1
- Binding of a rabbit serum to looped/cyclic peptides of protein N of SARS-CoV Urbani (Rabbit serum looped peptides) [4]: 0.7

Sequence: ITFGGPTDSTDNNQN
- Binding of Control Serum Blood-Bank to Looped peptides [1]: 0.7
- Binding of Control serum Blood-bank to linear peptides [1]: 0.5
- Binding of Control serum LUMC to linear peptides [1]: 0.6
- Binding of Control serum LUMC to looped peptides [1]: 0.7
- Binding of serum 1a to linear peptides of protein N of SARS-CoV Urbani [2]: 0.2
- Binding of serum 1a to looped/cyclic peptides of protein N of SARS-CoV Urbani [2]: 0.3
- Binding of serum 1b to linear peptides of protein N of SARS-CoV Urbani [2]: 0.1
- Binding of serum 1b to looped/cyclic peptides of protein N of SARS-CoV Urbani [2]: 0.2
- Binding of serum 2 to linear peptides of protein N of SARS-CoV Urbani [2]: 0.1
- Binding of serum 2 to looped/cyclic peptides of protein N of SARS-CoV Urbani [2]: 0.3
- Binding of serum 6 to linear peptides of protein N of SARS-CoV Urbani [2]: 0.1
- Binding of serum 6 to looped/cyclic peptides of protein N of SARS-CoV Urbani [2]: 0.2
- Binding of serum 37 to linear peptides of protein N of SARS-CoV Urbani [2]: 0.7
- Binding of serum 37 to looped/cyclic peptides of protein N of SARS-CoV Urbani [2]: 0.6
- Binding of serum 62 to linear peptides of protein N of SARS-CoV Urbani [2]: 0.6
- Binding of serum 62 to looped/cyclic peptides of protein N of SARS-CoV Urbani [2]: 0.5
- Binding of serum London to linear peptides of protein N of SARS-CoV Urbani [2]: 0.5
- Binding of serum London to looped/cyclic peptides of protein N of SARS-CoV Urbani [2]: 0.4
- Binding of serum SARS-green to linear peptides of protein N of SARS-CoV Urbani [2]: 0.3
- Binding of serum SARS-green to looped/cyclic peptides of protein N of SARS-CoV Urbani [2]: 0.7
- Binding of serum SARS-yellow to linear peptides of protein N of SARS-CoV Urbani [2]: 0.4
- Binding of serum SARS-yellow to looped/cyclic peptides of protein N of SARS-CoV Urbani [2]: 0.3
- Recognition of the peptide by antibody 03-018 [3]: recognized
- Binding of a rabbit serum to linear peptides of protein N of SARS-CoV Urbani (Rabbit serum linear peptides) [4]: 0.1
- Binding of a rabbit serum to looped/cyclic peptides of protein N of SARS-CoV Urbani (Rabbit serum looped peptides) [4]: 0.3

Sequence: KDHIGTRNPNNNAAT
- Binding of Control Serum Blood-Bank to Looped peptides [1]: 0.6
- Binding of Control serum Blood-bank to linear peptides [1]: 0.9
- Binding of Control serum LUMC to linear peptides [1]: 0.8
- Binding of Control serum LUMC to looped peptides [1]: 0.6
- Binding of serum 1a to linear peptides of protein N of SARS-CoV Urbani [2]: 0.3
- Binding of serum 1a to looped/cyclic peptides of protein N of SARS-CoV Urbani [2]: 0.4
- Binding of serum 1b to linear peptides of protein N of SARS-CoV Urbani [2]: 0.2
- Binding of serum 1b to looped/cyclic peptides of protein N of SARS-CoV Urbani [2]: 0.3
- Binding of serum 2 to linear peptides of protein N of SARS-CoV Urbani [2]: 0.4
- Binding of serum 2 to looped/cyclic peptides of protein N of SARS-CoV Urbani [2]: 0.5
- Binding of serum 6 to linear peptides of protein N of SARS-CoV Urbani [2]: 0.3
- Binding of serum 6 to looped/cyclic peptides of protein N of SARS-CoV Urbani [2]: 0.4
- Binding of serum 37 to linear peptides of protein N of SARS-CoV Urbani [2]: 0.9
- Binding of serum 37 to looped/cyclic peptides of protein N of SARS-CoV Urbani [2]: 0.5
- Binding of serum 62 to linear peptides of protein N of SARS-CoV Urbani [2]: 0.8
- Binding of serum 62 to looped/cyclic peptides of protein N of SARS-CoV Urbani [2]: 0.4
- Binding of serum London to linear peptides of protein N of SARS-CoV Urbani [2]: 0.5
- Binding of serum London to looped/cyclic peptides of protein N of SARS-CoV Urbani [2]: 0.4
- Binding of serum SARS-green to linear peptides of protein N of SARS-CoV Urbani [2]: 0.5
- Binding of serum SARS-green to looped/cyclic peptides of protein N of SARS-CoV Urbani [2]: 0.1
- Binding of serum SARS-yellow to linear peptides of protein N of SARS-CoV Urbani [2]: 0.8
- Binding of serum SARS-yellow to looped/cyclic peptides of protein N of SARS-CoV Urbani [2]: 0.3
- Binding of antibody 03-018 to linear peptides of the N protein of SARS-CoV Urbani [3]: 0.1
- Binding of antibody 03-018 to looped/cyclic peptides of the N protein of SARS-CoV Urbani [3]: 0.2
- Binding of a rabbit serum to linear peptides of protein N of SARS-CoV Urbani (Rabbit serum linear peptides) [4]: 0.1
- Binding of a rabbit serum to looped/cyclic peptides of protein N of SARS-CoV Urbani (Rabbit serum looped peptides) [4]: 0.2

Sequence: KDKKKKTDEAQPLPQ
- Control Serum Blood-Bank Looped peptides [1]: 0.5
- Control serum Blood-bank linear peptides [1]: 0.6
- Control serum LUMC linear peptides [1]: 0.6
- Control serum LUMC looped peptides [1]: 0.4
- Binding of serum 1a to linear peptides of protein N of SARS-CoV Urbani [2]: 0.2
- Binding of serum 1a to looped/cyclic peptides of protein N of SARS-CoV Urbani [2]: 0.2
- Binding of serum 1b to linear peptides of protein N of SARS-CoV Urbani [2]: 0.1
- Binding of serum 1b to looped/cyclic peptides of protein N of SARS-CoV Urbani [2]: 0.1
- Binding of serum 2 to linear peptides of protein N of SARS-CoV Urbani [2]: 0.2
- Binding of serum 2 to looped/cyclic peptides of protein N of SARS-CoV Urbani [2]: 0.2
- Binding of serum 6 to linear peptides of protein N of SARS-CoV Urbani [2]: 0.2
- Binding of serum 6 to looped/cyclic peptides of protein N of SARS-CoV Urbani [2]: 0.2
- Binding of serum 37 to linear peptides of protein N of SARS-CoV Urbani [2]: 0.7
- Binding of serum 37 to looped/cyclic peptides of protein N of SARS-CoV Urbani [2]: 0.4
- Binding of serum 62 to linear peptides of protein N of SARS-CoV Urbani [2]: 0.6
- Binding of serum 62 to looped/cyclic peptides of protein N of SARS-CoV Urbani [2]: 0.3
- Binding of serum London to linear peptides of protein N of SARS-CoV Urbani [2]: 0.6
- Binding of serum London to looped/cyclic peptides of protein N of SARS-CoV Urbani [2]: 0.4
- Binding of serum SARS-green to linear peptides of protein N of SARS-CoV Urbani [2]: 0.5
- Binding of serum SARS-green to looped/cyclic peptides of protein N of SARS-CoV Urbani [2]: 0.1
- Binding of serum SARS-yellow to linear peptides of protein N of SARS-CoV Urbani [2]: 0.5
- Binding of serum SARS-yellow to looped/cyclic peptides of protein N of SARS-CoV Urbani [2]: 0.1
- Binding of antibody 03-018 to linear peptides of the N protein of SARS-CoV Urbani [3]: 0.1
- Binding of antibody 03-018 to looped/cyclic peptides of the N protein of SARS-CoV Urbani [3]: 0.2
- Binding of a rabbit serum to linear peptides of protein N of SARS-CoV Urbani (Rabbit serum linear peptides) [4]: 0.1
- Binding of a rabbit serum to looped/cyclic peptides of protein N of SARS-CoV Urbani (Rabbit serum looped peptides) [4]: 0.0
